Measured values: US9822147B2, “Methods of treating ophthalmic diseases using NPR-B agonists” (priority 2009, dated 2017)
Numbered stars: 1 amine (or outer) side, 2 acyl side, 3 side chain; on linkers, the order of the positions; unused ones are H or OH. Square brackets hold non-standard residues; d marks the D form. Peptide text beside a SMILES is read from it. * marks the point of attachment. Pro(4R-NH2) = N[C@H]1CN[C@H](C(=O)O)C1; dOrn(Me2) = CN(C)CCC[C@@H](N)C(=O)O; X11 = O=C(C(CCN1CCCC1)N[*:1])[*:2]; X19 = O=C(C(CC1CCNCC1)N[*:1])[*:2]; X2 = O=C([C@H]1CCCN([*:1])C1)[*:2]; X1 = CCCCCCCCN1CCC[C@H](C(=O)*)C1; Hyp = O=C(O)[C@@H]1C[C@@H](O)CN1; NHcycloheptyl = C1CCCC(N*)CC1; NMeL = CN[C@@H](CC(C)C)C(=O)O; Octanoyl = CCCCCCCC(=O)*

Target: T1, NPR-B (Homo sapiens, UniProt P20594)
T1 construct: a functional assay using endogenously NPR-B expressing GTM-3 cells; endogenous in cells; host or cells: GTM-3 (human glaucoma trabecular meshwork cells)
T1 sequence (P20594 23-1047): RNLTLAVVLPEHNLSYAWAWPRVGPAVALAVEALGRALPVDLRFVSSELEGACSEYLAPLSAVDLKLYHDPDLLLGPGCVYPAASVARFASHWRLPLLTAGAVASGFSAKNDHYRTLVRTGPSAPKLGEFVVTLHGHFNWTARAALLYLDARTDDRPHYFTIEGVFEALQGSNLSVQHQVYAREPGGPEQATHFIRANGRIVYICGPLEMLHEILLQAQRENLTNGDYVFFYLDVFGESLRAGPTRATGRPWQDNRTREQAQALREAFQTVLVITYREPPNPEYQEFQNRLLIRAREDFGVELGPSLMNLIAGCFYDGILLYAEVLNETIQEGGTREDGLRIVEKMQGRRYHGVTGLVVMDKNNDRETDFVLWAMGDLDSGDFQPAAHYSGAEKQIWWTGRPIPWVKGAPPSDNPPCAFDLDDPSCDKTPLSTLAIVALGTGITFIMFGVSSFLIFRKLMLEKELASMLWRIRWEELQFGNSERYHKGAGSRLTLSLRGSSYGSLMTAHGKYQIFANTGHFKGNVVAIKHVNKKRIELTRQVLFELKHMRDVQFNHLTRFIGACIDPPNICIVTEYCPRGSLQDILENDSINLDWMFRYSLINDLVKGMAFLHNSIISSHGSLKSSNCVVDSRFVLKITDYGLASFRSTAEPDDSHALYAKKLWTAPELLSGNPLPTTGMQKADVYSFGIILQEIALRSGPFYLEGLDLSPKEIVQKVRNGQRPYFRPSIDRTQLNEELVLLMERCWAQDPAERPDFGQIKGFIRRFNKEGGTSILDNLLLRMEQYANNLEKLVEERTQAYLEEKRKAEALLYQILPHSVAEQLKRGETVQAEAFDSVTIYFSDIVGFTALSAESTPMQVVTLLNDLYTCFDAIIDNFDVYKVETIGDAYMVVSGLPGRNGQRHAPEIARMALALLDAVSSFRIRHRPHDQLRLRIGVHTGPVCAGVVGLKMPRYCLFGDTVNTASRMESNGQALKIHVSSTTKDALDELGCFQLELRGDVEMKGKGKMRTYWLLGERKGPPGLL
Test: NPR-B induced production of cyclic GMP in human glaucoma trabecular meshwork cells (GTM-3)
Format: cell-based
Conditions: group by EC50 and Emax (CNP = 100%); Table 4; read-out: Activity (group), NPR-B activation assayed with GTM-3 cells

EC50, < 1000 nM:
CCCCCCCCN1CCC[C@H](C(=O)N[C@@H](Cc2ccccc2)C(=O)N[C@H](CC(C)C)C(=O)N[C@@H](CC(C)C)C(=O)N2C[C@H](N)C[C@H]2C(=O)N(C)[C@@H](CC(C)C)C(=O)N[C@@H](CC(=O)O)C(=O)N[C@@H](CCCNC(=N)N)C(=O)NC2CCCCCC2)C1 [JAL-1843, Oct-Sni-Phe-leu-Leu-Tap-Nml-Asp-Arg-Che] (X1-F[dL]L[Pro(4R-NH2)][NMeL]DR-NHcycloheptyl)
CCCCCCCC(=O)N1CCC[C@H](C(=O)N[C@@H](Cc2ccccc2)C(=O)N[C@H](CCCN(C)C)C(=O)N[C@@H](CC(C)C)C(=O)N2C[C@H](N)C[C@H]2C(=O)N(C)[C@@H](CC(C)C)C(=O)N[C@H](C(=O)N[C@@H](CCCNC(=N)N)C(=O)NC2CCCCCC2)C(C)C)C1 [JAL-1850, Occ-Sni-Phe-orn(Me2)-Leu-Tap-Nml-Val-Arg-Che] (Octanoyl-[X2]F[dOrn(Me2)]L[Pro(4R-NH2)][NMeL]VR-NHcycloheptyl)
CCCCCCCC(=O)N1CCC[C@H](C(=O)N[C@@H](Cc2ccccc2)C(=O)NC(CCN2CCCC2)C(=O)N[C@@H](CC(C)C)C(=O)N2C[C@H](O)C[C@H]2C(=O)N(C)[C@@H](CC(C)C)C(=O)N[C@@H](CC(=O)O)C(=O)N[C@@H](CCCNC(=N)N)C(=O)N[C@H](C(N)=O)[C@@H](C)CC)C1 (stereo partly drawn) [JAL-1877, Occ-Sni-Phe-(AR-385-12)-Leu-Hyp-Nml-Asp-Arg-Ile-NH2] (Octanoyl-[X2]F[X11]L[Hyp][NMeL]DRI-NH2)
CCCCCCCC(=O)N1CCC[C@H](C(=O)N[C@@H](Cc2ccccc2)C(=O)NC(CC2CCNCC2)C(=O)N[C@@H](CC(C)C)C(=O)N2C[C@H](O)C[C@H]2C(=O)N(C)[C@@H](CC(C)C)C(=O)N[C@@H](CC(=O)O)C(=O)N[C@@H](CCCNC(=N)N)C(=O)N[C@H](C(N)=O)[C@@H](C)CC)C1 (stereo partly drawn) [JAL-1890, Occ-Sni-Phe-Egg-Leu-Hyp-Nml-Asp-Arg-Ile-NH2] (Octanoyl-[X2]F[X19]L[Hyp][NMeL]DRI-NH2)
CCCCCCCC(=O)N1CCC[C@H](C(=O)N[C@@H](Cc2ccccc2)C(=O)N[C@H](CCCN(C)C)C(=O)N[C@@H](CC(C)C)C(=O)N2C[C@H](O)C[C@H]2C(=O)N(C)[C@@H](CC(C)C)C(=O)N[C@H](C(=O)N[C@@H](CCCNC(=N)N)C(=O)NC2CCCCCC2)[C@@H](C)O)C1 [JAL-1895, Occ-Sni-Phe-orn(Me2)-Leu-Hyp-Nml-Thr-Arg-Che] (Octanoyl-[X2]F[dOrn(Me2)]L[Hyp][NMeL]TR-NHcycloheptyl)
CCCCCC[C@H](NC(=O)[C@@H]1CCCN1C(=O)[C@@H](N)CCCCN)C(=O)N1CCC[C@H](C(=O)N[C@@H](Cc2ccccc2)C(=O)N[C@H](CC(C)C)C(=O)N[C@@H](CC(C)C)C(=O)N2C[C@H](O)C[C@H]2C(=O)N(C)[C@@H](CC(C)C)C(=O)N[C@@H](CC(=O)O)C(=O)N[C@@H](CCCNC(=N)N)C(=O)N[C@H](C(N)=O)[C@@H](C)CC)C1 [JAL-1900, H-Lys-Pro-Hgl-Sni-Phe-leu-Leu-Hyp-Nml-Asp-Arg-Ile-NH2] (HELM PEPTIDE1{K.P.[CCCCCC[C@H](N[*:1])C(=O)[*:2]].[O=C([C@H]1CCCN([*:1])C1)[*:2]].F.[dL].L.[Hyp].[meL].D.R.I.[am]}$$$$V2.0)
CCCCCCCC(=O)N1CCC[C@H](C(=O)N[C@@H](Cc2ccccc2)C(=O)N[C@H](CC(C)C)C(=O)N[C@@H](CC(C)C)C(=O)N2C[C@H](O)C[C@H]2C(=O)N(C)[C@@H](CC(C)C)C(=O)N[C@H](C(=O)N[C@@H](CCCNC(=N)N)C(=O)N[C@H](C(N)=O)[C@@H](C)CC)[C@@H](C)O)C1 [JAL-1932, Occ-Sni-Phe-leu-Leu-Hyp-Nml-Thr-Arg-Ile-NH2] (HELM PEPTIDE1{[CCCCCCCC(=O)[*:2]].[O=C([C@H]1CCCN([*:1])C1)[*:2]].F.[dL].L.[Hyp].[meL].T.R.I.[am]}$$$$V2.0)
CCCCCCCC(=O)N1CCC[C@H](C(=O)N[C@@H](Cc2ccccc2)C(=O)N[C@H](CCCN(C)C)C(=O)N[C@@H](CC(C)C)C(=O)N2C[C@H](N)C[C@H]2C(=O)N(C)[C@@H](CC(C)C)C(=O)N[C@@H](CC(=O)O)C(=O)N[C@@H](CCCNC(=N)N)C(=O)N[C@H](C(N)=O)[C@@H](C)CC)C1 [JAL-1936, Occ-Sni-Phe-orn(Me2)-Leu-Tap-Nml-Asp-Arg-Ile-NH2] (Octanoyl-[X2]F[dOrn(Me2)]L[Pro(4R-NH2)][NMeL]DRI-NH2)
